Data set [1] concerns the target calcium channel (blood vessel, thoracic aorta) (Rattus norvegicus, UniProt P22002). The data set is described as follows: In vitro calcium channel antagonistic effect (blood vessel): inhibition of high potassium contraction of helical thoracic aorta samples. The settings on record: high potassium (45.0 mM KCl) contraction, 10^−7 M test compound, 30 minute pretreatment, read-out: Inhibition rate (%) (conc: 10^−7 M). How it is done: In vitro calcium channel antagonistic effect (blood vessel)
(§1) The thoracic aorta was extracted from each of male Crj:CD rats (8 to 12 weeks old) to prepare helical samples. The blood vessel samples were suspended in 37° C. Tyrode's solution through which a gaseous mixture (95% of oxygen and 5% of carbon dioxide) was passed. For examining the change in tensile strength of the blood vessel, the isometry thereof was recorded on a pen-writing recorder through a transducer. The high potassium contraction was caused by exchanging the nutrient solution from Tyrode's solution to potassium-Tyrode's solution (94.6 mM of NaCl, 45.0 mM of KCl, 1.8 mM of CaCl2, 1.04 mM of MgCl2, 0.4 mM of NaH2PO4, 11.9 mM of NaHCO3 and 5.55 mM of glucose). The high potassium contraction-inhibiting effect of a test compound was evaluated by 30 minute pretreatment. Compound A described in European Patent No. 0404359A1 and compound B described in International Patent No. 9733885A1 were used as comparative substances. The calcium channel antagonistic activity was shown as the rate (%) of inhibition of control of high-calcium contraction with 10^−7 M test compound.

Data set [2] has as its target calcium channel (ileum) (Rattus norvegicus, UniProt P22002). As to the kind of experiment: In vitro calcium channel antagonistic effect (ileum): inhibition of high potassium contraction of ileum samples. To be noted: high potassium (45.0 mM KCl) contraction, 10^−7 M test compound, 30 minute pretreatment, read-out: Inhibition rate (%) (conc.: 10^−7M). How it is done: In vitro calcium channel antagonistic effect (ileum)
as §1, with “ileum of” for “thoracic aorta was extracted from”, “was extracted at a part 3 cm apart from the ileocecal region.” for “to prepare helical samples.”, “ileum sample was” for “blood vessel samples were”, “ileum,” for “blood vessel,”, “isotonicity” for “isometry”

The structures appear in SMILES notation. Counter-ions that a name gives are not always drawn.

calcium channel (blood vessel, thoracic aorta), sequence (P22002 whole entry): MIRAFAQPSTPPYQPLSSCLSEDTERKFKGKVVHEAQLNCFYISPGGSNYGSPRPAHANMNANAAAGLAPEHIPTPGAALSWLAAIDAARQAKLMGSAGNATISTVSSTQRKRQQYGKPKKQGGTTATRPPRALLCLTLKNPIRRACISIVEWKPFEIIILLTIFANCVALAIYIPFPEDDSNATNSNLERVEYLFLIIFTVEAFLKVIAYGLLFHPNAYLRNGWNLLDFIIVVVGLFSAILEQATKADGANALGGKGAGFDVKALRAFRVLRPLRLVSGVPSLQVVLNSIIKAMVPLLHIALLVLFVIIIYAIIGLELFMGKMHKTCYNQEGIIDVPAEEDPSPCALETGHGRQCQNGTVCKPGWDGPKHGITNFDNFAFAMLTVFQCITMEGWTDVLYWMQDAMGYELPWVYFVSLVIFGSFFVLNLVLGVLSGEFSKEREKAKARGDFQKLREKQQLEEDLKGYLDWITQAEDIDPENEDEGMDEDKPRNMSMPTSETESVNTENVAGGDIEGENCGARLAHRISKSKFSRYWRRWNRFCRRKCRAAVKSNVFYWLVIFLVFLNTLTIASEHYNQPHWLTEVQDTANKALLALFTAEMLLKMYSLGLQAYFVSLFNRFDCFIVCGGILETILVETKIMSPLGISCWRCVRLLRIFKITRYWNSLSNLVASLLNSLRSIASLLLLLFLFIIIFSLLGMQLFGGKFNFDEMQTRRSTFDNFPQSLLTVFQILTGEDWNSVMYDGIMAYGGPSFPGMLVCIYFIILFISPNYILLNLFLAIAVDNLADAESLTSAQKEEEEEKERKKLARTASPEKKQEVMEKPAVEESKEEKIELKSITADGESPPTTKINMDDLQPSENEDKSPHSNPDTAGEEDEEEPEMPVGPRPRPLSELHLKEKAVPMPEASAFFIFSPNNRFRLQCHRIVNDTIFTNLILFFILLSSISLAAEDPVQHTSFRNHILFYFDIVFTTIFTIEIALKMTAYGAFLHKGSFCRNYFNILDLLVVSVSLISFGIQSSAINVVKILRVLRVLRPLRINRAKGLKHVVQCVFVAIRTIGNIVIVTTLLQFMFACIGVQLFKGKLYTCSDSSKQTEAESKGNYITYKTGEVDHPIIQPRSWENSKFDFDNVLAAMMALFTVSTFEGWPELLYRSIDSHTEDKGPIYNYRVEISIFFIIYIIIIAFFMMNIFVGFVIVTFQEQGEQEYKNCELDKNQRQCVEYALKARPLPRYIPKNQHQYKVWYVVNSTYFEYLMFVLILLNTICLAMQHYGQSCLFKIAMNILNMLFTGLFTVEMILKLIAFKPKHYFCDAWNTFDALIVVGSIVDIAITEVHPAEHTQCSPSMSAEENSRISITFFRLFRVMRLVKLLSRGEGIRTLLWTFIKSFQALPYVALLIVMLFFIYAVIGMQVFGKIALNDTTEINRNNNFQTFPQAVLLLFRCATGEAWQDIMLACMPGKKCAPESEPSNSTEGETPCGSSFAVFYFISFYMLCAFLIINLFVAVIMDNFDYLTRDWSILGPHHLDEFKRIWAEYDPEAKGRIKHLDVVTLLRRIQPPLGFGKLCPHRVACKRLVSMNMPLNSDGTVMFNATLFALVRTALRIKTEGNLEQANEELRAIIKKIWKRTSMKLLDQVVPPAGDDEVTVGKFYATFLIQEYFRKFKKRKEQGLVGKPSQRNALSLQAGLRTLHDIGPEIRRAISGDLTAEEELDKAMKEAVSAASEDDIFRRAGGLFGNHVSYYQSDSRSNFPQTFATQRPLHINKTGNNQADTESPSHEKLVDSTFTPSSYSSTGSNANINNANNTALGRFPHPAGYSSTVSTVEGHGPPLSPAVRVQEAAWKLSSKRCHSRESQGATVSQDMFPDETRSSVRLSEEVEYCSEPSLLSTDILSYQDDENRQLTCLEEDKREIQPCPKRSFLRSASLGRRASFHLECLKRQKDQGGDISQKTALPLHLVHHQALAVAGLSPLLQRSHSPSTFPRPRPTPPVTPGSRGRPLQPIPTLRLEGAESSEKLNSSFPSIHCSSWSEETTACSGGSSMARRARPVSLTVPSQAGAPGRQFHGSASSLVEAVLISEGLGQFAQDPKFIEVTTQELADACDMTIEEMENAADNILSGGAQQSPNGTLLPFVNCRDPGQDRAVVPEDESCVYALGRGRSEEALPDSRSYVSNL
calcium channel (ileum), sequence (P22002 whole entry): as above

With `COc1ccc(CCN2CCCC2CN2c3ccccc3CSc3ccccc32)cc1` (centres unmarked) [Compound A, reference compound], the results for the inhibition at 0.1 µM in data set [1] and in data set [2] were 9% and 48%, respectively.
For `COc1ccc(CCN2CCC[C@@H]2CN2c3ccccc3COc3ccccc32)cc1` [Compound B, reference compound] the same measures were 17% and 67%.
For the molecule `COc1ccc(CCN2CCCC[C@@H]2CN2c3ccccc3COc3ccccc32)cc1.Cl` [Example 1, (R)-5,11-Dihydro-5-[1-(4-methoxyphenethyl)piperidine-2-ylmethyl]dibenzo[b,e][1,4]oxazepine Hydrochloride], the melting point (usually the temperature, or range, at which the solid turns liquid) was 199 to 201 °C. The inhibition (as a rule, the change of the read-out against control, counted positive when it falls) at 0.1 µM in data set [1] is 38%. Besides, the inhibition at 0.1 µM in data set [2] worked out at 90%.
In the case of `COc1cccc(CCN2CCCC[C@@H]2CN2c3ccccc3COc3ccccc32)c1` [Example 3, (R)-5,11-Dihydro-5-[1-(3-methoxyphenethyl)piperidine-2-ylmethyl] dibenzo[b,e][1,4]oxazepine Hydrochloride], the inhibition at 0.1 µM in data set [1] turned out to be 33%; in data set [2] it was 61%.
For `COc1ccc(CCCN2CCCC[C@@H]2CN2c3ccccc3COc3ccccc32)cc1` [Example 4, (R)-5,11-Dihydro-5-[1-[3-(4-methoxyphenyl)propyl]piperidine-2-ylmethyl]dibenzo[b,e][1,4]oxazepine Hydrochloride] the same measures were 32% and 64%.
Taken in the same sequence, the figures for `c1ccc2c(c1)COc1ccccc1N2C[C@H]1CCCCN1CCc1ccc2c(c1)OCO2` [Example 5, (R)-5,11-Dihydro-5-[1-(3,4-methylenedioxyphenethyl)piperidine-2-yl-methyl] dibenzo[b,e][1,4]oxazepine Hydrochloride] were 27% and 66%.
Taken in the same sequence, the figures for `Clc1ccc(CCN2CCCC[C@@H]2CN2c3ccccc3COc3ccccc32)cc1` [Example 6, (R)-5-[1-(4-chlorophenethyl)piperidine-2-ylmethyl]-5,11-dihydrodibenzo [b,e][1,4]oxazepine Hydrochloride] were 25% and 75%.
For `CN(C)c1ccc(CCN2CCCC[C@@H]2CN2c3ccccc3COc3ccccc32)cc1` [Example 7, (R)-5,11-Dihydro-5-[1-(4-dimethylaminophenethyl)piperidine-2-ylmethyl]dibenzo[b,e][1,4]oxazepine Dihydrochloride], the inhibition at 0.1 µM came out at 23% in data set [1] and 78% in data set [2].
The molecule `COc1ccc(CCN2CC[C@@H](N3c4ccccc4COc4ccccc43)C2)cc1.Cl` [Example 8, (R)-5,11-Dihydro-5-[1-(4-methoxyphenethyl)pyrrolidine-3-yl] dibenzo[b,e][1,4]oxazepine Hydrochloride] returned a melting point of 224 to 226 °C. Further, the inhibition at 0.1 µM in data set [1] is 52%. In data set [2], the inhibition at 0.1 µM was 100%.
For `CN(C)c1ccc(CCN2CC[C@@H](N3c4ccccc4COc4ccccc43)C2)cc1.Cl` [Example 10, (R)-5,11-Dihydro-5-[1-(4-dimethylaminophenethyl)pyrrolidine-3-yl]dibenzo[b,e][1,4]oxazepine Hydrochloride] the same measures were 219 to 220 °C, 59% and 116%.
For the molecule `COc1ccc(CCCN2CC[C@@H](N3c4ccccc4COc4ccccc43)C2)cc1` [Example 11, (R)-5,11-Dihydro-5-[1-[3-(4-methoxyphenyl)propyl]pyrrolidine-3-yl]dibenzo[b,e][1,4]oxazepine Hydrochloride], the inhibition at 0.1 µM in data set [1] worked out at 61%; in data set [2], 83%.
For `c1ccc2c(c1)COc1ccccc1N2[C@@H]1CCN(CCc2ccc3c(c2)OCO3)C1` [Example 12, (R)-5,11-Dihydro-5-[1-(3,4-methylenedioxyphenethyl)pyrrolidine-3-yl]dibenzo[b,e][1,4]oxazepine Hydrochloride] the same measures were 51% and 77%.
Consider `Clc1ccc(CCN2CC[C@@H](N3c4ccccc4COc4ccccc43)C2)cc1` [Example 13, (R)-5-[1-(4-chlorophenethyl)pyrrolidine-3-yl]-5,11-dihydrodibenzo[b,e][1,4] oxazepine Hydrochloride], for which the inhibition at 0.1 µM in data set [1] was found to be 38%; in data set [2], 76%.
As to `COc1ccc(CCN(C)CCN2c3ccccc3COc3ccccc32)cc1.Cl` [Example 14, 5,11-Dihydro-5-[2-[N-(4-methoxyphenethyl)-N-methylamino]ethyl]dibenzo[b,e][1,4]oxazepine Hydrochloride], the melting point lay within 139 to 140 °C. In data set [1], the inhibition at 0.1 µM was determined as 43%. The inhibition at 0.1 µM in data set [2] was 105%.
In the case of `COc1cccc(CCN(C)CCN2c3ccccc3COc3ccccc32)c1` [Example 15, 5,11-Dihydro-5-[2-[N-(3-methoxyphenethyl)-N-methylamino]ethyl]dibenzo[b,e][1,4]oxazepine Hydrochloride], the results for the inhibition at 0.1 µM in data set [1] and in data set [2] were 29% and 82%, respectively.
Taken in the same sequence, the figures for `COc1ccc(CCCN(C)CCN2c3ccccc3COc3ccccc32)cc1` [Example 16, 5,11-Dihydro-5-[2-[N -[3-(4-methoxyphenyl)propyl]-N-methylamino]ethyl]dibenzo[b,e][1,4]oxazepine Hydrochloride] were 28% and 82%.
For `CN(CCc1ccc2c(c1)OCO2)CCN1c2ccccc2COc2ccccc21` [Example 17, 5,11-Dihydro-5-[2-[N-methyl-N-(3,4-methylenedioxyphenethyl)amino]ethyl]dibenzo[b,e][1,4]oxazepine Hydrochloride] the same measures were 30% and 78%.
Taken in the same sequence, the figures for `CN(CCc1ccc(Cl)cc1)CCN1c2ccccc2COc2ccccc21` [Example 18, 5-[2-[N-(4-chlorophenethyl)-N-methylamino]ethyl]-5,11-dihydrodibenzo [b,e][1,4]oxazepine Hydrochloride] were 34% and 70%.
With `CN(CCc1ccc(N(C)C)cc1)CCN1c2ccccc2COc2ccccc21` [Example 19, 5,11-Dihydro-5-[2-[N-(4-dimethylaminophenethyl)-N-methylamino]ethyl]dibenzo[b,e][1,4]oxazepine Dihydrochloride], the inhibition at 0.1 µM was 39% in data set [1] and 76% in data set [2].
For `CN(CCc1cccc(N(C)C)c1)CCN1c2ccccc2COc2ccccc21` [Example 20, 5,11-Dihydro-5-[2-[N-(3-dimethylaminophenethyl)-N-methylamino]ethyl]dibenzo[b,e][1,4]oxazepine Dihydrochloride] the same measures were 28% and 50%.

The values are drawn from patent US6528504B2, “Oxazepine derivatives and medicine containing the same” (Ajinomoto Co., Inc., priority 1999, dated 2003).
